Data from ChEMBL document CHEMBL1201862, “PubChem BioAssay data set” (2004).
Calls of active or inactive are those of the source.

How the values were obtained:
[1] = target: Lytic switch protein BZLF1 (Epstein-Barr virus (strain B95-8) (HHV-4) (Human herpesvirus 4), UniProt P03206); assay: inhibition of BZLF1 ZTA DNA binding – biochemical, fluorescence polarization, Epstein-Barr virus, 1536-well, counter-screen for EBNA-1 inhibitor project, dose response (AID 2377); set-up: species or system human gammaherpesvirus 4;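 further: fluorescence polarization of Cy5-labelled ZRE DNA probe bound by purified Zta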
Chain of Lytic switch protein BZLF1 (P03206 whole entry): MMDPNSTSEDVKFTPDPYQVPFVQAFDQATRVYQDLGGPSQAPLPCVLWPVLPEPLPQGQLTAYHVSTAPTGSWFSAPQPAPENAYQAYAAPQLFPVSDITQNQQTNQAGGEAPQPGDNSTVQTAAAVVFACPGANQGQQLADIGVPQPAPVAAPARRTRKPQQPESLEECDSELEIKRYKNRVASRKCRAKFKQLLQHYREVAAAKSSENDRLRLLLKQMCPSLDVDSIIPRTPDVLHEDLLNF

Streptococcus [2] = assay: Luminescence Microorganism-Based Dose Response Follow up to Identify Compounds Cytotoxic to Streptococcus. [Related pubchem assays: 1677 (Project Summary), 1915, 1914, 1902 (Retest at Dose), 1900 (Counter Screen), 1662 (Primary HTS)]; type: functional, organism-based
[3] = test system: Streptococcus sp. 'group A'; assay: Streptococcus pyogenes SK(-)GAS viability under kanamycin – luminescence, BacTiterGlo, confirmation, counter-screen for streptokinase expression inhibitor project, dose response (AID 1900); type: functional, organism-based
[4] = target: Epstein-Barr nuclear antigen 1 (Epstein-Barr virus (strain B95-8) (HHV-4) (Human herpesvirus 4), UniProt P03211); assay: inhibition of EBV nuclear antigen 1 DNA binding – biochemical, fluorescence polarization, 1536-well, dose response (AID 2381); set-up: species or system human gammaherpesvirus 4;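 further: fluorescence polarization of a Cy5 DNA probe bound by EBNA-1 protein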
Streptokinase A = target: T1, Streptokinase A (Streptococcus pyogenes serotype M1, UniProt P10520); assay: viability-normalized secreted streptokinase activity reduction – plasminogen activation absorbance, OD405, dose response (AID 1914); type: functional, Streptococcus pyogenes M1 GAS;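 further: secreted streptokinase activity via plasminogen activation per viability signal from cell pellet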
T1 sequence (P10520 whole entry): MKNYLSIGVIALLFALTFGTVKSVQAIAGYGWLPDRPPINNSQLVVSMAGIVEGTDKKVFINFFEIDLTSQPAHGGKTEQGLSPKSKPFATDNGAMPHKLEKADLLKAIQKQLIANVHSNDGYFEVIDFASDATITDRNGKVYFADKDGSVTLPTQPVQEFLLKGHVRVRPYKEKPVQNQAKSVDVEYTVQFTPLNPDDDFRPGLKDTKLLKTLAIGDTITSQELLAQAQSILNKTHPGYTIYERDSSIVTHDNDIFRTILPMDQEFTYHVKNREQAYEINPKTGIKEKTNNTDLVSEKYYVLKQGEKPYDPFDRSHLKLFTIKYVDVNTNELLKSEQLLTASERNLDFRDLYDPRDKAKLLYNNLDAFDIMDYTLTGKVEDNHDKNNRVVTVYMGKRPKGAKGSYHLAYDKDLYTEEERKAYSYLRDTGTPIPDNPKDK

Streptococcus [5] = assay: GAS UMAA2166 growth inhibition – luminescence, BacTiterGlo, counter-screen for streptokinase expression inhibitor project, dose response (AID 1915); type: functional, organism-based;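 further: potency for reduction of bacterial viability or growth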
[6] = target: G-protein coupled receptor 55 (Homo sapiens, UniProt Q9Y2T6); assay: inhibition of LPI-stimulated GPR55 beta-arrestin translocation – imaging, U2OS, beta-arrestin-GFP, LPI agonist, primary screen (AID 2013); type: functional;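 further: antagonist potency measured as reduced agonist-driven arrestin aggregation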
Chain of G-protein coupled receptor 55 (Q9Y2T6 whole entry): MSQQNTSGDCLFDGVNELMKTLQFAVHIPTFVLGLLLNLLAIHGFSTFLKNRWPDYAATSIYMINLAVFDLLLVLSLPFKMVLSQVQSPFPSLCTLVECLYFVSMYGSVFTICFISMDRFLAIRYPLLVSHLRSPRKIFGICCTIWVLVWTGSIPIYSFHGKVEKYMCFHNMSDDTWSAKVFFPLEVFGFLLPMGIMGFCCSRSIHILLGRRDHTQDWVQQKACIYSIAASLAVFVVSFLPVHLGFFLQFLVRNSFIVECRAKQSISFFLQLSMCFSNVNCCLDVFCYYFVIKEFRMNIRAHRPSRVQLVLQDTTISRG

Wee1-like protein kinase = Wee1-like protein kinase (Homo sapiens, UniProt P30291); assay: Dose Response Cell-based Assay for Inhibitors of Wee1 Degradation. [Related pubchem assays: 1410, 1321 ]; type: functional
[7] = target: G2/mitotic-specific cyclin-B1 (Homo sapiens, UniProt P14635); assay: Counterscreen assay for inhibitors of Wee1 degradation: dose response cell-based assay to identify inhibitors of cyclin B degradation. [Related pubchem assays: 1410, 1321 ]; type: functional
Chain of G2/mitotic-specific cyclin-B1 (P14635 whole entry): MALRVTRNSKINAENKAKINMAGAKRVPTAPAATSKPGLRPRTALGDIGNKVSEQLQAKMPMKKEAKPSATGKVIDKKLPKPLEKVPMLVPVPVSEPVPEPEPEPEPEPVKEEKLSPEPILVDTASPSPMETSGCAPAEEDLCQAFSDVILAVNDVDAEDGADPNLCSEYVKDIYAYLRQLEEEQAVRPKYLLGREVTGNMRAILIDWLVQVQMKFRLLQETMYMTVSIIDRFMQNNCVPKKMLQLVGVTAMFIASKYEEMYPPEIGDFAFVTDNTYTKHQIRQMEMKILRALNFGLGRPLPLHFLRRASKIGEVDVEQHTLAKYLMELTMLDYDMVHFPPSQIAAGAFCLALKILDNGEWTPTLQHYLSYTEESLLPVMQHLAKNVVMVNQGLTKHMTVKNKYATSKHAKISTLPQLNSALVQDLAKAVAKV

Cytochrome P450 3A4 = Cytochrome P450 3A4 (Homo sapiens, UniProt P08684); settings: Potency;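 further: confirmatory qHTS run detecting inhibitors and substrates of CYP3A4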
[8] = target: T2, Probable nicotinate-nucleotide adenylyltransferase (Staphylococcus aureus (strain N315), UniProt P65502); type: functional, Staphylococcus aureus subsp. aureus N315;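 on IC50 Mean: confirmatory dose-response retesting of NadD inhibitor hits first found in an ultra-high-throughput screen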
T2 sequence (P65502 whole entry): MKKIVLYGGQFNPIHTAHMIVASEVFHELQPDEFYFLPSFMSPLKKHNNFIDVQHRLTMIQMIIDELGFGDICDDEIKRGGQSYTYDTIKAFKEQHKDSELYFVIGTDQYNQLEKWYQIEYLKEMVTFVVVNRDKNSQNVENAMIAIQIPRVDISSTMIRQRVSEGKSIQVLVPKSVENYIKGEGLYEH

Aminopeptidase N = target: T3, Aminopeptidase N (Plasmodium falciparum FcB1/Columbia, UniProt O96935); assay: malaria alanyl aminopeptidase activity blockers – biochemical, fluorogenic H-Leu-NHMec substrate, 1536-well (AID 1445); set-up: species or system Plasmodium falciparum 3D7, 3D7
T3 sequence (O96935 whole entry): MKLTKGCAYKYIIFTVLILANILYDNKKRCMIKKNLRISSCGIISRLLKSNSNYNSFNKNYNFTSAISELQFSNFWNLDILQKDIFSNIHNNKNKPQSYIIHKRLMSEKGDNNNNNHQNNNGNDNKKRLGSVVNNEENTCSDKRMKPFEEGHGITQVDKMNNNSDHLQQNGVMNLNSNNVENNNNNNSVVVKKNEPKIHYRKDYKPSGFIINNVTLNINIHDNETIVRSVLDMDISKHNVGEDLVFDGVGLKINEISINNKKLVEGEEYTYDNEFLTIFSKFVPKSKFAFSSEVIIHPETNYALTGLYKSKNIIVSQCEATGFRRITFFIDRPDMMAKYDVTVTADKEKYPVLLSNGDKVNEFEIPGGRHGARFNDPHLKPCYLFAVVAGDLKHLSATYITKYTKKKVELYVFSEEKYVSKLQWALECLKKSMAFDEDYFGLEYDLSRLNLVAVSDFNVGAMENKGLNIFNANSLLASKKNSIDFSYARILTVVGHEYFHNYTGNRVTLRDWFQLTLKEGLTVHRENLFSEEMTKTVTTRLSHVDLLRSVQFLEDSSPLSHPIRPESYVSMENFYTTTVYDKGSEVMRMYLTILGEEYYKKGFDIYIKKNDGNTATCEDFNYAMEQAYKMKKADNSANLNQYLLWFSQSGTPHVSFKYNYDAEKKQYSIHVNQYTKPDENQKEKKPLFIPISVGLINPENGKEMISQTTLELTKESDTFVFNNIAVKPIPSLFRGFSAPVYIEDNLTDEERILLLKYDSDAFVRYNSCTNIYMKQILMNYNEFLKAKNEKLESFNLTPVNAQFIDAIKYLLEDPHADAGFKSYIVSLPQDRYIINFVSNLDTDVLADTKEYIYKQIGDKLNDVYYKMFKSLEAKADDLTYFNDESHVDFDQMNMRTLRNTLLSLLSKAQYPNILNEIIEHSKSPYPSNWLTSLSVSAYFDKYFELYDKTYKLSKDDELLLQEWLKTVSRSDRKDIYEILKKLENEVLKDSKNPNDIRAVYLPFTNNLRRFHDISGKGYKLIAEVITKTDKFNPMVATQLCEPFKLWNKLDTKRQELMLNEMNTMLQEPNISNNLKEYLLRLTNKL

[9] = target: T2, Probable nicotinate-nucleotide adenylyltransferase; type: functional, Staphylococcus aureus subsp. aureus N315; settings: read-out: IC50_Mean
[10] = target: Transitional endoplasmic reticulum ATPase (Homo sapiens, UniProt P55072); assay: p97 ATPase inhibitors, dose response, biochemical (AID 1534)
Chain of Transitional endoplasmic reticulum ATPase (Homo sapiens, UniProt P55072) (P55072 whole entry): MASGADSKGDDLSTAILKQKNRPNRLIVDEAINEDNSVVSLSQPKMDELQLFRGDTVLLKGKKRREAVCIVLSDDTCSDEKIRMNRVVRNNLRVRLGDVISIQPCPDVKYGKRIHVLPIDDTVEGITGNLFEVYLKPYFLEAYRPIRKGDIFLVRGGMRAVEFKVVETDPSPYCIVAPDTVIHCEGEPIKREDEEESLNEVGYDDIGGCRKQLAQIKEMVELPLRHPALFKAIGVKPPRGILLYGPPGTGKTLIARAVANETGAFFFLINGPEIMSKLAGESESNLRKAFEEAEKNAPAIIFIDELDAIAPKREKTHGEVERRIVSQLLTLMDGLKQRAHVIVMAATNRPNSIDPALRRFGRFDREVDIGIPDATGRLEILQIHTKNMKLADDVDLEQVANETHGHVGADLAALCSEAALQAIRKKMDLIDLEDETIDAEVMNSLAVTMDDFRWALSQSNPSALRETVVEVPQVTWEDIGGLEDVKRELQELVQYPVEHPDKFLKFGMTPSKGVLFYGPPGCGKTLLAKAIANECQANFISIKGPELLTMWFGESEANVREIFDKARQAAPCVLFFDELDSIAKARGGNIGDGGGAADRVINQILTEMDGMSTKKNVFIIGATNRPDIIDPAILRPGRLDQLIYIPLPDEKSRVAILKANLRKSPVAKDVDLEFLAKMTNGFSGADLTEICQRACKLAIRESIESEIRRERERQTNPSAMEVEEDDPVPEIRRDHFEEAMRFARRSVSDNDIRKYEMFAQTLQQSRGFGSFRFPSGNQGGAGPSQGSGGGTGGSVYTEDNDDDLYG

[11] = target: Transitional endoplasmic reticulum ATPase (Homo sapiens, UniProt P55072, C522A); assay: C522A mutant p97 ATPase inhibitors, dose response, counter-screen for p97 inhibitor project, biochemical, luminescence (AID 1544)
[12] = target: Induced myeloid leukemia cell differentiation protein Mcl-1 (Homo sapiens, UniProt Q07820); type: functional
Chain of Induced myeloid leukemia cell differentiation protein Mcl-1 (Q07820 whole entry): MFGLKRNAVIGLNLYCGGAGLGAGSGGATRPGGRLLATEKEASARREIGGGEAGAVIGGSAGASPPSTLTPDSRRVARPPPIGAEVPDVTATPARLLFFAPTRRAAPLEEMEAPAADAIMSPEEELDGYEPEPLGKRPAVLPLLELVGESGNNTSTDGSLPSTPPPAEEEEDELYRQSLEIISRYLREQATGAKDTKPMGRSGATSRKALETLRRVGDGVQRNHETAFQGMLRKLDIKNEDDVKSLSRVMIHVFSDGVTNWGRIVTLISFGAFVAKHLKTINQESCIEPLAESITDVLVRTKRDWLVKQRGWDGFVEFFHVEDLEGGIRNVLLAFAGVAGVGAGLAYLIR

HT-1080 = assay: HT1080 cell viability loss – fluorescence readout (AID 620); type: functional, cell-based; settings: Homo sapiens
[13] = HEK-293T viability loss after treatment – luminescence, T-cell screen hits, cytotoxicity control for TCR NF-kB inhibitor project, dose response (AID 489026); type: functional, cell-based;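 further: cells exposed to compound about 14 hours before the viability readout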
[14] = off-target signal loss in HeLa-CEM21 co-culture – HeLa F-luc CTL cells, cherry-picked, counter-screen for HIV-1 Env fusion inhibitor project, dose response (AID 652040); type: functional, cell-based;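 further: potency for signal decrease marking cytotoxic or nonspecific inhibition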
[15] = HIV-1 AD8 envelope cell-cell fusion blockers – cherry-pick, dose response (AID 652062); type: functional, cell-based;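 further: luciferase signal from cell-cell fusion driven by HIV-1 clade B AD8 Env; potency is for inhibitors of fusion seen as a drop in luminescence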
[16] = target: Luciferin 4-monooxygenase (Photinus pyralis, UniProt P08659); assay: Counter Screen for Luciferase-based Assay Positives. [Related pubchem assays: 620, 618, 411 ]
Chain of Luciferin 4-monooxygenase (P08659 whole entry, the tested form may be a part): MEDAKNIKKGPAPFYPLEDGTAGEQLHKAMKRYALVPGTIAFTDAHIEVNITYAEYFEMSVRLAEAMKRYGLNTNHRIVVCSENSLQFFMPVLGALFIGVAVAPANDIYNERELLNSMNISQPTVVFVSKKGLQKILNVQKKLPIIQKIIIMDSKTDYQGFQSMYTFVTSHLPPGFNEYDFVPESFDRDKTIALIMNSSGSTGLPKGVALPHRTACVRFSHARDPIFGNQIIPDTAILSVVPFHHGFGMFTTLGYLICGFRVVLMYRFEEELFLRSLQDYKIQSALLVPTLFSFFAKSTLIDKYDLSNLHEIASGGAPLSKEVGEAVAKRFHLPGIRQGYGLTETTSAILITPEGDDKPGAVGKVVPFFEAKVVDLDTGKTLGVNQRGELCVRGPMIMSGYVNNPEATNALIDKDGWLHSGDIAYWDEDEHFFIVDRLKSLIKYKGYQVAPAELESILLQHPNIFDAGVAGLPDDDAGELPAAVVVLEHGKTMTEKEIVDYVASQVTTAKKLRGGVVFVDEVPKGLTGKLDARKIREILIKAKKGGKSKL

[17] = blockers of HIV-1 ZM109 envelope-driven cell-cell fusion – HeLa effector, CEM target cells, luciferase, cherry-pick, dose response (AID 652058); type: functional, cell-based;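 further: luciferase signal from HIV-1 Env mediated cell-cell fusion of effector and target cells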
[18] = blockers of HIV-1 envelope-mediated cell-cell fusion – cherry-pick, dose response (AID 652057); type: functional, cell-based
Cytochrome P450 2C9 = Cytochrome P450 2C9 (Homo sapiens, UniProt P11712); settings: Potency
Chain of Cytochrome P450 2C9 (P11712 whole entry): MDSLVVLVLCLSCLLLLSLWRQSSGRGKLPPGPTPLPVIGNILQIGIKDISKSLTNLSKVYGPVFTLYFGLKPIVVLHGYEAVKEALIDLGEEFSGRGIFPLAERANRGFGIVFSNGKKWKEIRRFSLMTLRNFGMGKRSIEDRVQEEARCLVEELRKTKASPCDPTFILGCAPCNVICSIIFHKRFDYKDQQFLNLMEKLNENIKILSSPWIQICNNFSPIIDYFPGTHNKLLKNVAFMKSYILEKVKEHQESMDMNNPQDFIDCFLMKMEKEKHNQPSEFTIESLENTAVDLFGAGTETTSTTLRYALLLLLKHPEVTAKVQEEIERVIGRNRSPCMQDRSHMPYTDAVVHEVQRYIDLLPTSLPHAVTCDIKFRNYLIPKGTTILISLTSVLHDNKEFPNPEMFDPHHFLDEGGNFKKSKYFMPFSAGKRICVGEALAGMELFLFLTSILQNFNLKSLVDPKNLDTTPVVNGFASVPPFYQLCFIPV

Estrogen receptor beta = Estrogen receptor beta (Homo sapiens, UniProt Q92731); assay: blockers of SRC-3 recruitment to ERβ – biochemical, ELISA, streptavidin-HRP readout, orthogonal assay, confirmation (AID 1060)
Estrogen receptor [19] = target: T4, Estrogen receptor (Homo sapiens, UniProt P03372);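 further: potency for inhibiting coactivator peptide recruitment to the receptor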
T4 sequence (P03372 whole entry): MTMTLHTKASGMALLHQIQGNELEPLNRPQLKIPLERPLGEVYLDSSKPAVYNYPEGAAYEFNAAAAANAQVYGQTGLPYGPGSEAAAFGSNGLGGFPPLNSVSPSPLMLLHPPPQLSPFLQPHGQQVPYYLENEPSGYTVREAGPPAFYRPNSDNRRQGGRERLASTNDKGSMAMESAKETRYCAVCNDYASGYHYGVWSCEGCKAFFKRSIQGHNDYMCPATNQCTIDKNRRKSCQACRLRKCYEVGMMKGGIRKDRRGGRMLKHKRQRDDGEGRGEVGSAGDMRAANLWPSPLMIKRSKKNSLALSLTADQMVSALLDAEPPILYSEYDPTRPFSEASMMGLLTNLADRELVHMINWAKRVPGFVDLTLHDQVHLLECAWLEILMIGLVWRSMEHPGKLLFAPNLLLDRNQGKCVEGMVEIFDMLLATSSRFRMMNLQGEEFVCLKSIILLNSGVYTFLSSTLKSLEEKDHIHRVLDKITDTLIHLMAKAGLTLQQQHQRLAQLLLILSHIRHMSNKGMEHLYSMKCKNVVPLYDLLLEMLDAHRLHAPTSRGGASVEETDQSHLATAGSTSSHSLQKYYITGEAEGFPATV

Estrogen receptor [20] = target: T4, Estrogen receptor; assay: blockers of SRC-3 recruitment to ERα – biochemical, ELISA, streptavidin-HRP readout, orthogonal assay, confirmation (AID 1079)
Aspartyl aminopeptidase = Aspartyl aminopeptidase (Plasmodium falciparum 3D7, UniProt Q8I2J3)
Chain of Aspartyl aminopeptidase (Q8I2J3 whole entry): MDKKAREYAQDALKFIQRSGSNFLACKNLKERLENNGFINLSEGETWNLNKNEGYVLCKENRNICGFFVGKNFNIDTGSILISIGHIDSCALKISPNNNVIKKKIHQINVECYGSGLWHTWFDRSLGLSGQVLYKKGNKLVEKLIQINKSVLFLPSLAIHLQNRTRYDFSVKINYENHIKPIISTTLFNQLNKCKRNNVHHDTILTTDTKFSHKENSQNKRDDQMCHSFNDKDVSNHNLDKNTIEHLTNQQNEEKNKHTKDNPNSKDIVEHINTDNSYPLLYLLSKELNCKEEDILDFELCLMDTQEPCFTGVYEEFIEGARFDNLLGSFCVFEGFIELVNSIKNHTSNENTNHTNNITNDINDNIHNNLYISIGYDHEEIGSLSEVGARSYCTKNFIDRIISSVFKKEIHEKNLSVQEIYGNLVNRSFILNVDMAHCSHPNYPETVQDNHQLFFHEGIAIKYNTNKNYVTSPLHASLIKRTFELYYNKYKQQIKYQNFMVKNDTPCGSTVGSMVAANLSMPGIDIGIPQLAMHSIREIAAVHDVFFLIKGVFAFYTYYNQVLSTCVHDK

Procathepsin L = Procathepsin L (Homo sapiens, UniProt P07711)
Chain of Procathepsin L (P07711 whole entry): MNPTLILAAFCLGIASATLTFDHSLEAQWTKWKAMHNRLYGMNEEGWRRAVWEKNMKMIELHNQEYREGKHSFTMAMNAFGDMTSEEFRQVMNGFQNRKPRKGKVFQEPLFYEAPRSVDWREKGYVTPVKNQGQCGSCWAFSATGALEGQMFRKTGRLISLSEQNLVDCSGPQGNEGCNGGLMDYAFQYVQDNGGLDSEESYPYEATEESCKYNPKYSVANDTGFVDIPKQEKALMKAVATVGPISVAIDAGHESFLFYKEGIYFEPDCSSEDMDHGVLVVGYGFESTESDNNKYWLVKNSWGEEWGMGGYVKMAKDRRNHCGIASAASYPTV

[21] = target: T5, Heat shock 70 kDa protein 1A (Homo sapiens, UniProt P0DMV8); assay: small molecules displacing fluorescent ligand from Hsp70 – biochemical, fluorescence polarization, primary screen (AID 583)
T5 sequence (P0DMV8 whole entry): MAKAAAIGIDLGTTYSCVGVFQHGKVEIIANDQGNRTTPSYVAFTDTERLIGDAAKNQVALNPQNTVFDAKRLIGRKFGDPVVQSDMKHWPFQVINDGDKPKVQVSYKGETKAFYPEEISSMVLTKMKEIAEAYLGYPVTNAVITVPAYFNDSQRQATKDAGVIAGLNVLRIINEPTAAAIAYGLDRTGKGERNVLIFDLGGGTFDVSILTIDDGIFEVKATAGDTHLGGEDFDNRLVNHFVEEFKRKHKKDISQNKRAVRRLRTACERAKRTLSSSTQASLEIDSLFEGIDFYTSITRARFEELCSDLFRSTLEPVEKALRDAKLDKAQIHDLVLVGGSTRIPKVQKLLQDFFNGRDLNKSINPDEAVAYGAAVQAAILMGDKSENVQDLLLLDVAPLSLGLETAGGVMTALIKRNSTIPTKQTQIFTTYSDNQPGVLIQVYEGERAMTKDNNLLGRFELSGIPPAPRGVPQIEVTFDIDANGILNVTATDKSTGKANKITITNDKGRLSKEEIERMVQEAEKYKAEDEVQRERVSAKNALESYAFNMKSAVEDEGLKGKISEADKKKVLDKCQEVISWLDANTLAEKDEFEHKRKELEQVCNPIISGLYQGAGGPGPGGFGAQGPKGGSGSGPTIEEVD

[22] = target: T5, Heat shock 70 kDa protein 1A; assay: small-molecule inhibition of Hsp70 – biochemical, TR-FRET (AID 786)
[23] = target: Peroxisome proliferator-activated receptor gamma/Nuclear receptor coactivator 3 (Homo sapiens, UniProt P37231); type: functional;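 further: agonist potency for raising coactivator recruitment to the receptor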
[24] = target: Peroxisome proliferator-activated receptor gamma/Nuclear receptor coactivator 2 (Homo sapiens, UniProt P37231); type: functional;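 further: agonist potency for raising coactivator recruitment to the receptor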
[25] = target: Peroxisome proliferator-activated receptor gamma/Nuclear receptor coactivator 1 (Homo sapiens, UniProt P37231); type: functional;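 further: agonist potency as compounds enhance coactivator SRC-1 recruitment to PPARgamma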

## O=[N+]([O-])c1ccccc1NCCNc1ncc(C(F)(F)F)cc1Cl
[1]
  IC50: 23.5 µM (not active)
Streptococcus [2]
  EC50: > 500 µM (not active)
[3]
  EC50: > 150 µM (not active)
[4]
  IC50: 16.8 µM (not active)
Streptokinase A
  EC50: 5.57 µM (active)
Streptococcus [5]
  EC50: > 150 µM (not active)

## O=C(/C=C/c1cccnc1)/C=C/c1cccnc1
[6]
  IC50: 3.26 µM (active)
Wee1-like protein kinase
  EC50: > 1.84 µM (active)
[7]
  EC50: > 49.7 µM (not active)

## N#C/C(=C\c1ccc(O)cc1)C(=O)O [alpha-CYANO-4-HYDROXYCINNAMIC ACID]
Cytochrome P450 3A4
  AC50: 31.6 µM (inconclusive)

## O=c1cc(-c2ccc(O)c(-c3c(O)cc(O)c4c(=O)cc(-c5ccc(O)cc5)oc34)c2)oc2cc(O)cc(O)c12 [AMENTOFLAVONE]
[8]
  IC50: 9.38 µM (active)
Aminopeptidase N
  IC50: 108 µM (active)
[9]
  IC50: 29.4 µM (active)
[10]
  IC50: 8.98 µM (active)
[11]
  IC50: > 50 µM (not active)
[3]
  EC50: 1.68 µM (active)
[12]
  IC50: 1.63 µM (active)
Streptokinase A
  EC50: > 150 µM (not active)
Streptococcus [5]
  EC50: > 150 µM (not active)

## Cc1ccc(C(=O)Nc2cccc(C(=O)O)c2)cc1
HT-1080
  EC50: > 50 µM (not active)
[13]
  IC50: > 80 µM (inactive)
[14]
  AC50: 2.07 µM (active)
[15]
  AC50: 4.84 µM (active)
[16]
  EC50: 96.3 µM (active)
[17]
  AC50: 7.9 µM (active)
[18]
  AC50: 1.38 µM (active)

## Clc1ccc([C@@H](c2ccccc2Cl)C(Cl)Cl)cc1
Cytochrome P450 2C9
  AC50: 15.8 µM (inconclusive)

## O=C(CCCn1c(=S)[nH]c2ccccc2c1=O)N1CCN(c2cccc(Cl)c2)CC1
Estrogen receptor beta
  IC50: > 50 µM (not active)
Estrogen receptor [19]
  IC50: 5.73 µM (active)
Estrogen receptor [20]
  IC50: 0.12 µM (not active)

## O=C(Nc1ccc(Cl)cc1Cl)Nn1cnnc1
Aspartyl aminopeptidase
  IC50: 0.791 µM (active)
Procathepsin L
  IC50: > 59.6 µM (not active)

## CCOC(=O)N1CCN(CC(=O)Nc2cc(OCC)ccc2OCC)CC1
[21]
  IC50: > 100 µM (not active)
[22]
  IC50: > 100 µM (not active)

## CCn1cc(CNCc2cn(C)nc2-c2ccc(C3CCCCC3)cc2)cn1
[23]
  EC50: > 79.4 µM (not active)
[24]
  EC50: > 79.4 µM (not active)
[25]
  EC50: > 79.4 µM (not active)
